According to ChEMBL document CHEMBL4507289, “Data for DCP probe GSM1” (2021):

Columns and labels:
[1] = test system: Tyrosine-protein kinase ABL1 (Homo sapiens), P00519 [H396P]; conditions: Compound concentration 1000.0 nM
[2] = test system: Tyrosine-protein kinase ABL1 (Homo sapiens), P00519 [Q252H]; conditions: Compound concentration 1000.0 nM
[3] = molecular target: Mitogen-activated protein kinase kinase kinase 5 (Homo sapiens) (UniProt Q99683); conditions: Compound concentration 1000.0 nM
[4] = molecular target: Tyrosine-protein kinase Blk (Homo sapiens) (UniProt P51451); conditions: Compound concentration 1000.0 nM
[5] = molecular target: Calcium/calmodulin-dependent protein kinase type II subunit delta (Homo sapiens) (UniProt Q13557); conditions: Compound concentration 1000.0 nM
[6] = molecular target: Peripheral plasma membrane protein CASK (Homo sapiens) (UniProt O14936); conditions: Compound concentration 1000.0 nM
[7] = molecular target: Cyclin-dependent kinase-like 2 (Homo sapiens) (UniProt Q92772); conditions: Compound concentration 1000.0 nM
[8] = molecular target: Death-associated protein kinase 1 (Homo sapiens) (UniProt P53355); conditions: Compound concentration 1000.0 nM
[9] = molecular target: Serine/threonine-protein kinase 17A (Homo sapiens) (UniProt Q9UEE5); conditions: Compound concentration 1000.0 nM
[10] = test system: Epidermal growth factor receptor (Homo sapiens), P00533 [G719S]; conditions: Compound concentration 1000.0 nM
[11] = molecular target: Ephrin type-B receptor 4 (Homo sapiens) (UniProt P54760); conditions: Compound concentration 1000.0 nM
[12] = molecular target: Ephrin type-B receptor 6 (Homo sapiens) (UniProt O15197); conditions: Compound concentration 1000.0 nM
[13] = test system: Receptor-type tyrosine-protein kinase FLT3 (Homo sapiens), P36888 [K663Q]; conditions: Compound concentration 1000.0 nM
[14] = molecular target: Tyrosine-protein kinase Fyn (Homo sapiens) (UniProt P06241); conditions: Compound concentration 1000.0 nM
[15] = molecular target: Inhibitor of nuclear factor kappa-B kinase subunit alpha (Homo sapiens) (UniProt O15111); conditions: Compound concentration 1000.0 nM
[16] = molecular target: Inhibitor of nuclear factor kappa-B kinase subunit beta (Homo sapiens) (UniProt O14920); conditions: Compound concentration 1000.0 nM
[17] = molecular target: Insulin receptor (Homo sapiens) (UniProt P06213); conditions: Compound concentration 1000.0 nM
[18] = test system: Mast/stem cell growth factor receptor Kit (Homo sapiens), P10721 [D816V]; conditions: Compound concentration 1000.0 nM
[19] = test system: Mast/stem cell growth factor receptor Kit (Homo sapiens), P10721 [V559D,V654A]; conditions: Compound concentration 1000.0 nM
[20] = molecular target: LIM domain kinase 2 (Homo sapiens) (UniProt P53671); conditions: Compound concentration 1000.0 nM
[21] = molecular target: Mitogen-activated protein kinase kinase kinase 15 (Homo sapiens) (UniProt Q6ZN16); conditions: Compound concentration 1000.0 nM
[22] = molecular target: MAP kinase-interacting serine/threonine-protein kinase 2 (Homo sapiens) (UniProt Q9HBH9); conditions: Compound concentration 1000.0 nM
[23] = molecular target: Serine/threonine-protein kinase MRCK beta (Homo sapiens) (UniProt Q9Y5S2); conditions: Compound concentration 1000.0 nM
[24] = molecular target: Serine/threonine-protein kinase 24 (Homo sapiens) (UniProt Q9Y6E0); conditions: Compound concentration 1000.0 nM
[25] = molecular target: Cyclin-dependent kinase 17 (Homo sapiens) (UniProt Q00537); conditions: Compound concentration 1000.0 nM
[26] = molecular target: Phosphatidylinositol 4,5-bisphosphate 3-kinase catalytic subunit alpha isoform (Homo sapiens) (UniProt P42336); conditions: Compound concentration 1000.0 nM
[27] = test system: Phosphatidylinositol 4,5-bisphosphate 3-kinase catalytic subunit alpha isoform (Homo sapiens), P42336 [H1047L]; conditions: Compound concentration 1000.0 nM
[28] = test system: Phosphatidylinositol 4,5-bisphosphate 3-kinase catalytic subunit alpha isoform (Homo sapiens), P42336 [H1047Y]; conditions: Compound concentration 1000.0 nM
[29] = molecular target: Phosphatidylinositol 4-phosphate 5-kinase type-1 alpha (Homo sapiens) (UniProt Q99755); conditions: Compound concentration 1000.0 nM
[30] = molecular target: cGMP-dependent protein kinase 1 (Homo sapiens) (UniProt Q13976); conditions: Compound concentration 1000.0 nM
[31] = test system: Proto-oncogene tyrosine-protein kinase receptor Ret (Homo sapiens), P07949 [M918T]; conditions: Compound concentration 1000.0 nM
[32] = molecular target: Receptor-interacting serine/threonine-protein kinase 1 (Homo sapiens) (UniProt Q13546); conditions: Compound concentration 1000.0 nM
[33] = molecular target: Receptor-interacting serine/threonine-protein kinase 2 (Homo sapiens) (UniProt O43353); conditions: Compound concentration 1000.0 nM
[34] = molecular target: Dual serine/threonine and tyrosine protein kinase (Homo sapiens) (UniProt Q6XUX3); conditions: Compound concentration 1000.0 nM
[35] = molecular target: Ribosomal protein S6 kinase alpha-4 (Homo sapiens) (UniProt O75676); conditions: Compound concentration 1000.0 nM
[36] = molecular target: Serine/threonine-protein kinase Sgk1 (Homo sapiens) (UniProt O00141); conditions: Compound concentration 1000.0 nM
[37] = molecular target: Serine/threonine-protein kinase TAO3 (Homo sapiens) (UniProt Q9H2K8); conditions: Compound concentration 1000.0 nM
[38] = molecular target: Wee1-like protein kinase 2 (Homo sapiens) (UniProt P0C1S8); conditions: Compound concentration 1000.0 nM
[39] = molecular target: Serine/threonine-protein kinase 32C (Homo sapiens) (UniProt Q86UX6); conditions: Compound concentration 1000.0 nM
[40] = molecular target: Tyrosine-protein kinase Yes (Homo sapiens) (UniProt P07947); conditions: Compound concentration 1000.0 nM
[41] = molecular target: 5-hydroxytryptamine receptor 1B (Homo sapiens) (UniProt P28222); conditions: Compound concentration 10.0 uM
[42] = molecular target: 5-hydroxytryptamine receptor 5A (Homo sapiens) (UniProt P47898); conditions: Compound concentration 10.0 uM
[43] = molecular target: D(4) dopamine receptor (Homo sapiens) (UniProt P21917); conditions: Compound concentration 10.0 uM
Histamine H2 receptor = Histamine H2 receptor (Homo sapiens, UniProt P25021); conditions: Compound concentration 10.0 uM
Rattus norvegicus = species on record: Rattus norvegicus; conditions: Compound concentration 10.0 uM

Chain of Tyrosine-protein kinase Yes (Homo sapiens) (P07947 2-543 limits assumed): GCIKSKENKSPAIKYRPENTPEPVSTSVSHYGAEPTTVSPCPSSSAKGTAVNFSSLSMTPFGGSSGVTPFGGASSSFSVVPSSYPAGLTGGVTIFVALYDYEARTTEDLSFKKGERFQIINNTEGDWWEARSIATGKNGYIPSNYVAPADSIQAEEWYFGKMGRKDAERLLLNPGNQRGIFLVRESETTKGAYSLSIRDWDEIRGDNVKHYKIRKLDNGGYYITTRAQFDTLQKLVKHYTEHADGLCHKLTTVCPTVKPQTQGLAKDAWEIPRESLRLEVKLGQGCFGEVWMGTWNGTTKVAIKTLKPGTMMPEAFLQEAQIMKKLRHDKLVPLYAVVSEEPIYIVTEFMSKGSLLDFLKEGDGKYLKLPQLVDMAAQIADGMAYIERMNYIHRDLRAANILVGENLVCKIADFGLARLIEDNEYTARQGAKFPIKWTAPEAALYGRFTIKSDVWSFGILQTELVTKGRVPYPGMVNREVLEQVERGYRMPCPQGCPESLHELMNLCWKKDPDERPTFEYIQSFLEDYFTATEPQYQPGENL
Chain of Tyrosine-protein kinase Blk (Homo sapiens) (P51451 2-505 limits assumed): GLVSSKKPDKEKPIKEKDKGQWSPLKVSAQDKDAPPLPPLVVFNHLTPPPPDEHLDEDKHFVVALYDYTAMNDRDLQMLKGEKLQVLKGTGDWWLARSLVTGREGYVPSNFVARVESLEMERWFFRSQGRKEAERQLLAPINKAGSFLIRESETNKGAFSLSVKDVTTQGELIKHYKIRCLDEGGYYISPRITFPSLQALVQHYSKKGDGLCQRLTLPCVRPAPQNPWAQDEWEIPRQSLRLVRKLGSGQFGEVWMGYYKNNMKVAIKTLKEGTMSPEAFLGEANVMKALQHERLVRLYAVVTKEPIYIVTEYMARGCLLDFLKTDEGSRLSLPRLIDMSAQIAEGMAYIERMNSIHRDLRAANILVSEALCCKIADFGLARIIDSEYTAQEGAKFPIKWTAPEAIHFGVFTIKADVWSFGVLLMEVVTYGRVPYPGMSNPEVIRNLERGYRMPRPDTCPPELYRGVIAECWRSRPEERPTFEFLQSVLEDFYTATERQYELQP
Chain of Phosphatidylinositol 4,5-bisphosphate 3-kinase catalytic subunit alpha isoform (Homo sapiens) (P42336 whole entry, canonical isoform): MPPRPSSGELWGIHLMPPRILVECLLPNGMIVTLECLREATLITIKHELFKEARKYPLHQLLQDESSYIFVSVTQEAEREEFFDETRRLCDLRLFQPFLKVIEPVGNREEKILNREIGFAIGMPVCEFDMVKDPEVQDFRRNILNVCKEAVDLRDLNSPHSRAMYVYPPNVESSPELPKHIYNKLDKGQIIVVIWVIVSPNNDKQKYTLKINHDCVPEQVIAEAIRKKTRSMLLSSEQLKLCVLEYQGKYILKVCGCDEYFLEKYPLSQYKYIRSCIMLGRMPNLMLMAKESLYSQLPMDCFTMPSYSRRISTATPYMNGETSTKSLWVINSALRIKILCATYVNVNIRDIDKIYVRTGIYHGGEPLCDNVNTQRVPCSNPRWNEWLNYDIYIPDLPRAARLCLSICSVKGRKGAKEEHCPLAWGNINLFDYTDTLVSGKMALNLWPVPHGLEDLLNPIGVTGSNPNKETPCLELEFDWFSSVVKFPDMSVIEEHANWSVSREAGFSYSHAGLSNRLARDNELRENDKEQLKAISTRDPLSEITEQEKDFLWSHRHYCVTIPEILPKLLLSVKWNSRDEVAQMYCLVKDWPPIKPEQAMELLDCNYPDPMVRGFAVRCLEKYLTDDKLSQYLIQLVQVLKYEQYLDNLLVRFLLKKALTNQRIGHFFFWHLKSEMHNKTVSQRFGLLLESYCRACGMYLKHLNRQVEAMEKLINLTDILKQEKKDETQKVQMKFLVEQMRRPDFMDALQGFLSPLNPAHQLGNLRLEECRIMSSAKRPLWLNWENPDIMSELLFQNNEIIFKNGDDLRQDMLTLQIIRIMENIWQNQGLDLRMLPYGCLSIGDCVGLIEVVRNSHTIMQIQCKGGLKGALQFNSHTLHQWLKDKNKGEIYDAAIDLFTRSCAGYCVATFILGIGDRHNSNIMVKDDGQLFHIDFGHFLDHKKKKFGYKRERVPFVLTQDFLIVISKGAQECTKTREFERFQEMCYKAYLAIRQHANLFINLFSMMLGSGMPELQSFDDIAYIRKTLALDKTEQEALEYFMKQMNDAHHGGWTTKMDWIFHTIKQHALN
Chain of Inhibitor of nuclear factor kappa-B kinase subunit beta (Homo sapiens) (O14920 whole entry): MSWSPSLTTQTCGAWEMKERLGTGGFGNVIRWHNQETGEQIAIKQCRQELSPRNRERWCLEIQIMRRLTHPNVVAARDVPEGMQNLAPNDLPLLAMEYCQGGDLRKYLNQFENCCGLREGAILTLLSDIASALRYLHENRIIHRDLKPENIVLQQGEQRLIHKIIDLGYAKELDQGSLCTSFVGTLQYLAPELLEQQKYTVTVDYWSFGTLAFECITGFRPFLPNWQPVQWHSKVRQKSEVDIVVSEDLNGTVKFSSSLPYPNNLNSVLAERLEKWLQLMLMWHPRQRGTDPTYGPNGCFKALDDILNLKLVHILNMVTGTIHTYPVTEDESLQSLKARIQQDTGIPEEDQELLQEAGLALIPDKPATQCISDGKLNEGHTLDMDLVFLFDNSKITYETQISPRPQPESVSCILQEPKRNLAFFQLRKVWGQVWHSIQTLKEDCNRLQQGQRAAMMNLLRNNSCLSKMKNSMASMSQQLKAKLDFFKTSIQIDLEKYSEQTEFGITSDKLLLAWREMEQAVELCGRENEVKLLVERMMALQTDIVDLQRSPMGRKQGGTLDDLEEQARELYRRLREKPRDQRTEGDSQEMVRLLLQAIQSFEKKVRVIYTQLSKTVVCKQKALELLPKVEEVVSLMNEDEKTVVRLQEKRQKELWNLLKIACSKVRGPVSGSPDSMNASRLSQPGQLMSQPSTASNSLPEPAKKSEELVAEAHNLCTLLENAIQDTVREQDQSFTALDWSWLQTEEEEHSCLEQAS
Chain of Inhibitor of nuclear factor kappa-B kinase subunit alpha (Homo sapiens) (O15111 whole entry): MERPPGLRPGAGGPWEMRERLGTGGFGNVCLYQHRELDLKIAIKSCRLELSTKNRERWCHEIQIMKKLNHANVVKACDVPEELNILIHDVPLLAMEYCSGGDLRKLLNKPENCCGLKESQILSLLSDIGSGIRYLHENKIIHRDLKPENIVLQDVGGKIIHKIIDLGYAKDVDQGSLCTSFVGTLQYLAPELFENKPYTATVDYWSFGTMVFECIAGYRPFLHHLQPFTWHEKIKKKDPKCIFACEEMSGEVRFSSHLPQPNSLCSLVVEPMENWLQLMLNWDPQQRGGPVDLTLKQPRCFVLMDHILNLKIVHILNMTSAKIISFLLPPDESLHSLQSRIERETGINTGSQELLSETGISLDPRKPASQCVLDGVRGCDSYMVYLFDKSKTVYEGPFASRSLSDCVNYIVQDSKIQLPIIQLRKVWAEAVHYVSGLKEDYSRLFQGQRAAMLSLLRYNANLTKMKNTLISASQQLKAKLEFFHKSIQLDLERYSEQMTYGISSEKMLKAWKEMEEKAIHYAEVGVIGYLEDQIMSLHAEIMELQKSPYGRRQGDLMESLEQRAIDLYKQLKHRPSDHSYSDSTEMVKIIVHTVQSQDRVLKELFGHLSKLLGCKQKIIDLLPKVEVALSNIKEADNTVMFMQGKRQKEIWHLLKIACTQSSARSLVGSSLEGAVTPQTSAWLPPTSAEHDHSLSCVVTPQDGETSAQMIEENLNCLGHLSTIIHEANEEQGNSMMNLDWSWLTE
Chain of Serine/threonine-protein kinase Sgk1 (Homo sapiens) (O00141 whole entry): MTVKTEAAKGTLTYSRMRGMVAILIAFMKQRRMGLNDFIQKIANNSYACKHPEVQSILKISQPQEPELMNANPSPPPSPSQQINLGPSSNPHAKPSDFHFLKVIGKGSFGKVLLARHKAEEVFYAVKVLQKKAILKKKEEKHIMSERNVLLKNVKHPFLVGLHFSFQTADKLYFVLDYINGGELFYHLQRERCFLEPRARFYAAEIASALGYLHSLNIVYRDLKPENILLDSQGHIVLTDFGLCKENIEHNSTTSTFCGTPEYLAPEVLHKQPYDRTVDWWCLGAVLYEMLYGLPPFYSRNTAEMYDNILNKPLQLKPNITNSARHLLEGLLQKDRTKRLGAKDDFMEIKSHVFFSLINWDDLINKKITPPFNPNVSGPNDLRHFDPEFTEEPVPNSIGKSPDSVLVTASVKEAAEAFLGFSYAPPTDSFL
Chain of Dual serine/threonine and tyrosine protein kinase (Homo sapiens) (Q6XUX3 whole entry): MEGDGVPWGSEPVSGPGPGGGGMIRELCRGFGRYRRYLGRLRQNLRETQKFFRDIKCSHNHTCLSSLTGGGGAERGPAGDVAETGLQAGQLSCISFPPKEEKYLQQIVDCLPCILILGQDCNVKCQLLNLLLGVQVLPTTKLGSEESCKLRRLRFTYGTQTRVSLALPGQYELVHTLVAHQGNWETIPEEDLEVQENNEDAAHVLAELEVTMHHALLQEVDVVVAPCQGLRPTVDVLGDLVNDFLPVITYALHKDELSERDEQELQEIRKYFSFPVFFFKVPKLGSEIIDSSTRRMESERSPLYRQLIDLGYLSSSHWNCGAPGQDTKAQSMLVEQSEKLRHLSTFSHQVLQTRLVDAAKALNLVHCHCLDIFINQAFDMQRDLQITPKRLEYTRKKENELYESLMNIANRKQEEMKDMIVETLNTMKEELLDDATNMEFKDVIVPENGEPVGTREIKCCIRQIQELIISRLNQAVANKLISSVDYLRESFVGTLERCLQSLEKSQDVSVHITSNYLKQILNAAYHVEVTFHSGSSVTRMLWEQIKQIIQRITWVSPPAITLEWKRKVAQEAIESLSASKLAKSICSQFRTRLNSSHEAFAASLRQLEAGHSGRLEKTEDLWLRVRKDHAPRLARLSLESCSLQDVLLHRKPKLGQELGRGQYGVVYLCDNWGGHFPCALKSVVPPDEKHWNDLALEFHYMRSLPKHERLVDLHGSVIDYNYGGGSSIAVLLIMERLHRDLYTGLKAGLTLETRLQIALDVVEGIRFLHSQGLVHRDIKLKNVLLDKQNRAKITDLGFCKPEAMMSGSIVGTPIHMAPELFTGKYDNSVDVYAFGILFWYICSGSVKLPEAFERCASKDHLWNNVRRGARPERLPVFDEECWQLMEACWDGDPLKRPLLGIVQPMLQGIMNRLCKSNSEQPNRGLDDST

COc1cc(-c2cn([C@H]3CCc4ccccc4N(CC(F)(F)F)C3=O)nn2)ccc1-n1ccc(C)n1
residual activity [1]: 47% | residual activity [2]: 90% | residual activity [3]: 100% | residual activity [4]: 100% | residual activity [5]: 100% | residual activity [6]: 80% | residual activity [7]: 91% | residual activity [8]: 79% | residual activity [9]: 100% | residual activity [10]: 100% | residual activity [11]: 92% | residual activity [12]: 100% | residual activity [13]: 100% | residual activity [14]: 94% | residual activity [15]: 98% | residual activity [16]: 99% | residual activity [17]: 69% | residual activity [18]: 100% | residual activity [19]: 100% | residual activity [20]: 100% | residual activity [21]: 84% | residual activity [22]: 66% | residual activity [23]: 100% | residual activity [24]: 97% | residual activity [25]: 100% | residual activity [26]: 69% | residual activity [27]: 97% | residual activity [28]: 100% | residual activity [29]: 96% | residual activity [30]: 100% | residual activity [31]: 100% | residual activity [32]: 100% | residual activity [33]: 93% | residual activity [34]: 100% | residual activity [35]: 97% | residual activity [36]: 88% | residual activity [37]: 72% | residual activity [38]: 100% | residual activity [39]: 84% | residual activity [40]: 100% | inhibition [41]: 30.8% | inhibition [42]: 9.69% | inhibition [43]: 52.4% | inhibition (Histamine H2 receptor): 4.13% | inhibition (Rattus norvegicus): 59.5%

COc1cc(-c2cn([C@H]3CCc4c(F)cccc4N(CC(F)(F)F)C3=O)nn2)ccc1-n1cnc(C)c1
residual activity [1]: 52% | residual activity [2]: 95% | residual activity [3]: 100% | residual activity [4]: 100% | residual activity [5]: 100% | residual activity [6]: 71% | residual activity [7]: 67% | residual activity [8]: 99% | residual activity [9]: 100% | residual activity [10]: 90% | residual activity [11]: 100% | residual activity [12]: 100% | residual activity [13]: 92% | residual activity [14]: 100% | residual activity [15]: 100% | residual activity [16]: 100% | residual activity [17]: 90% | residual activity [18]: 100% | residual activity [19]: 97% | residual activity [20]: 100% | residual activity [21]: 100% | residual activity [22]: 76% | residual activity [23]: 100% | residual activity [24]: 100% | residual activity [25]: 84% | residual activity [26]: 94% | residual activity [27]: 96% | residual activity [28]: 100% | residual activity [29]: 100% | residual activity [30]: 100% | residual activity [31]: 100% | residual activity [32]: 100% | residual activity [33]: 100% | residual activity [34]: 100% | residual activity [35]: 100% | residual activity [36]: 90% | residual activity [37]: 100% | residual activity [38]: 100% | residual activity [39]: 100% | residual activity [40]: 100% | inhibition [41]: 35% | inhibition [42]: 7.61% | inhibition [43]: -7.76% | inhibition (Histamine H2 receptor): 51.8% | inhibition (Rattus norvegicus): 8.82%
